Tests used:
[1] = tested on: OVKATE (Ovarian Carcinoma); assay: combination Emax (second highest fraction inhibited in the dose matrix, 72 h); higher = more inhibition; extreme values may be limits of the assay
Procedure, shortened: (§1)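 After 24 hours at 37°C and 5% CO2 in 1536-well plates, cells in DMEM/F12 or RPMI plus 10% FBS received two-drug dose matrices for 72 hours. Viability came from CellTiter-Glo 2.0 luminescence and was scaled as inhibition, anchored at 0 by vehicle wells and at 1 by blank wells. Combination Emax is taken as the second-highest inhibition in the matrix, and Bliss excess as the observed combination effect less EA + EB − EA·EB, with EA and EB the single-agent effects.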

[2] = tested on: NCI-H2023 (Non-Small Cell Lung Carcinoma); assay: as above
Procedure, shortened: as §1

[3] = tested on: SBC-3 (Small Cell Lung Carcinoma); assay: as above
Procedure, shortened: as §1

[4] = tested on: SW1463 (Colorectal Carcinoma); assay: as above
Procedure, shortened: as §1

[5] = tested on: NTERA-2-cl-D1 (Other Solid Carcinomas); assay: as above
Procedure, shortened: as §1

GCIY (Gastric Carcinoma) = assay: as above
Procedure, shortened: as §1

[6] = tested on: MRK-nu-1 (Breast Carcinoma); assay: Bliss excess, mean over the matrix (fraction); higher = more synergy
Procedure, shortened: as §1

NCI-H2452 (Mesothelioma) = assay: as above
Procedure, shortened: as §1

[7] = tested on: RPMI-8402 (T-Lymphoblastic Leukemia); assay: as above
Procedure, shortened: as §1

[8] = tested on: NCI-H2023 (Non-Small Cell Lung Carcinoma); assay: as above
Procedure, shortened: as §1

A375 (Melanoma) = assay: as above
Procedure, shortened: as §1

[9] = tested on: NCI-H1048 (Small Cell Lung Carcinoma); assay: combination Emax (second highest fraction inhibited in the dose matrix, 72 h); higher = more inhibition; extreme values may be limits of the assay
Procedure, shortened: as §1

[10] = tested on: SUP-HD1 (Hodgkin's Lymphoma); assay: as above
Procedure, shortened: as §1

[11] = tested on: NCI-H1944 (Lung Adenocarcinoma); assay: as above
Procedure, shortened: as §1

[12] = tested on: HT-1197 (Bladder Carcinoma); assay: Bliss excess, mean over the matrix (fraction); higher = more synergy
Procedure, shortened: as §1

[13] = tested on: SCC90 (Head and Neck Carcinoma); assay: as above
Procedure, shortened: as §1
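For Bliss excess, mean over the matrix in this document: after 72 h of two-drug dosing.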

Row | SMILES | combination Emax [1] | combination Emax [2] | combination Emax [3] | combination Emax [4] | combination Emax [5] | combination Emax (GCIY (Gastric Carcinoma)) | Bliss excess [6] | Bliss excess (NCI-H2452 (Mesothelioma)) | Bliss excess [7] | Bliss excess [8] | Bliss excess (A375 (Melanoma)) | combination Emax [9] | combination Emax [10] | combination Emax [11] | Bliss excess [12] | Bliss excess [13]
1 | O=C(c1cc(Cc2n[nH]c(=O)c3ccccc23)ccc1F)N1CCN(C(=O)C2CC2)CC1 [Olaparib] + Cc1c2c(nn1C)CSCc1cc(n(C)n1)CSc1cc(c3ccccc3c1)OCCCc1c(C(=O)O)n(C)c3c-2c(Cl)ccc13 [AZD5991] (first compound max 10 µM, 7x7, partner max 1 µM) | 0.0781 | 0.12 | 0.523 | 0.192 | 0.531 | 0.181 | 0.0135 | -0.0199 | -0.0419 | -0.0502 | -0.0264 |  |  |  |  | 
2 | Cc1c2c(nn1C)CSCc1cc(n(C)n1)CSc1cc(c3ccccc3c1)OCCCc1c(C(=O)O)n(C)c3c-2c(Cl)ccc13 [AZD5991] + Nc1ccn([C@@H]2O[C@H](CO)[C@@H](O)C2(F)F)c(=O)n1 [Gemcitabine] (first compound max 1 µM, 7x7, partner max 0.3 µM) | 0.165 | 0.612 | 0.962 | 0.516 | 0.536 | 0.649 | 0.0571 | -0.0642 | 0.0264 | -0.0707 | 0.0115 |  |  |  |  | 
3 | CCc1c2c(nc3ccc(O)cc13)-c1cc3c(c(=O)n1C2)COC(=O)[C@]3(O)CC [SN-38] + O=C(c1cc(Cc2n[nH]c(=O)c3ccccc23)ccc1F)N1CCN(C(=O)C2CC2)CC1 [Olaparib] (first compound max 0.3 µM, 7x7, partner max 10 µM) | 0.224 | 0.857 | 0.979 | 0.473 | 1 | 0.779 | 0.0478 | 0.0422 | 0.0767 | 0.0986 | 0.0588 | 0.987 | 0.895 | 0.634 | 0.0465 | 0.0728
4 | C[C@@H]1COCCN1c1cc(C2([S@](C)(=N)=O)CC2)nc(-c2ccnc3[nH]ccc23)n1 [AZD6738] + Nc1ccn([C@@H]2O[C@H](CO)[C@@H](O)C2(F)F)c(=O)n1 [Gemcitabine] (first compound max 10 µM, 7x7, partner max 0.3 µM) | 0.345 | 0.684 | 0.97 | 0.792 | 0.592 | 0.774 | -0.0532 | 0.0333 | 0.0319 | 0.0123 | 0.0602 |  |  |  |  | 
5 | C[C@@H](Nc1cc(F)cc(F)c1)c1cc(C(=O)N(C)C)cc2c(=O)cc(N3CCOCC3)oc12 [AZD8186] + C1CN(CCC1(C(=O)N[C@@H](CCO)C2=CC=C(C=C2)Cl)N)C3=NC=NC4=C3C=CN4 [AZD5363] (first compound max 10 µM, 7x7, partner max 10 µM) | 0.252 | 0.333 | 0.446 | 0.274 | 0.348 | 0.743 | -0.0418 | -0.0466 | -0.0783 | -0.0589 | 0.011 |  |  |  |  | 
6 | C[C@@H]1COCCN1c1cc(C2([S@](C)(=N)=O)CC2)nc(-c2ccnc3[nH]ccc23)n1 [AZD6738] + C1CC(C1)(C(=O)[O-])C(=O)[O-].N.N.[Pt+2] [Carboplatin] (first compound max 10 µM, 7x7, partner max 10 µM) | 0.211 | 0.608 | 0.647 | 0.409 | 0.524 | 0.643 | -0.0127 | -0.0212 | -0.0461 | -0.0208 | -0.0113 |  |  |  |  | 
7 | Cc1c2c(nn1C)CSCc1cc(n(C)n1)CSc1cc(c3ccccc3c1)OCCCc1c(C(=O)O)n(C)c3c-2c(Cl)ccc13 [AZD5991] + CC(=O)O[C@H]1C(=O)[C@@]2(C)[C@H]([C@H](OC(=O)c3ccccc3)[C@]3(O)C[C@H](OC(=O)[C@H](O)[C@@H](NC(=O)c4ccccc4)c4ccccc4)C(C)=C1C3(C)C)[C@]1(OC(C)=O)CO[C@@H]1C[C@@H]2O [Paclitaxel] (first compound max 1 µM, 7x7, partner max 3 µM) | 0.217 | 0.537 | 0.952 | 0.527 | 0.614 | 0.686 | 0.0286 | 0.0378 | 0.0139 | 0.0058 | -0.0149 |  |  |  |  | 
8 | Cc1c2c(nn1C)CSCc1cc(n(C)n1)CSc1cc(c3ccccc3c1)OCCCc1c(C(=O)O)n(C)c3c-2c(Cl)ccc13 [AZD5991] + CS(=O)(=O)CCNCc1ccc(-c2ccc3ncnc(Nc4ccc(OCc5cccc(F)c5)c(Cl)c4)c3c2)o1 [Lapatinib] (first compound max 1 µM, 7x7, partner max 10 µM) | 0.307 | 0.284 | 0.28 | 0.51 | 0.487 | 0.447 | 0.0112 | -0.0576 | 0.0115 | 0.0021 | 0.0109 |  |  |  |  | 

Reference: the supplement of paper PMC11061612
